From US11541028B2, “Peptide pharmaceuticals for treatment of NASH and other disorders” (Mederis Diabetes LLC, priority 2018, dated 2023)
Values belong to the compound of their own block, whether it stands above or below them.

Key:
human GLP-1 receptor = molecular target: T1, human GLP-1 receptor (Homo sapiens, UniProt P43220); experiment: DiscoveRx LeadHunter cellular assay, cAMP stimulation, GLP-1 receptor in CHO cells; format: cell-based; conditions: human GLP-1 receptor in CHO cells (DiscoveRx); read-out: EC50 cAMP GLP-1 R
T1 construct: host or cells: CHO cells
T1 sequence (P43220 24-463): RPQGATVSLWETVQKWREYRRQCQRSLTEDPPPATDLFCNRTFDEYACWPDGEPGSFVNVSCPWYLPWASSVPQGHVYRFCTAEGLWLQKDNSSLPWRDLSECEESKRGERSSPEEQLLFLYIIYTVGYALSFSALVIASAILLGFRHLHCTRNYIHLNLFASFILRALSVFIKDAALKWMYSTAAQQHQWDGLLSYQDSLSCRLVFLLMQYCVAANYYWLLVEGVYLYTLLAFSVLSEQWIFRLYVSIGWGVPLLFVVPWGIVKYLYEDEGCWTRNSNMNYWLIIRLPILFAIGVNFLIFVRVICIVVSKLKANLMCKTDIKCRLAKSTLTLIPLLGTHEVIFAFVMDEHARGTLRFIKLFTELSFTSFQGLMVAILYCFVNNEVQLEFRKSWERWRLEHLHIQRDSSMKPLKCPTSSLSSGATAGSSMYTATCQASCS

human glucagon receptor = molecular target: T2, human glucagon receptor (Homo sapiens, UniProt P47871); experiment: DiscoveRx LeadHunter cellular assay, cAMP stimulation, glucagon receptor in CHO cells; format: cell-based
T2 construct: host or cells: CHO cells
T2 sequence (P47871 26-477): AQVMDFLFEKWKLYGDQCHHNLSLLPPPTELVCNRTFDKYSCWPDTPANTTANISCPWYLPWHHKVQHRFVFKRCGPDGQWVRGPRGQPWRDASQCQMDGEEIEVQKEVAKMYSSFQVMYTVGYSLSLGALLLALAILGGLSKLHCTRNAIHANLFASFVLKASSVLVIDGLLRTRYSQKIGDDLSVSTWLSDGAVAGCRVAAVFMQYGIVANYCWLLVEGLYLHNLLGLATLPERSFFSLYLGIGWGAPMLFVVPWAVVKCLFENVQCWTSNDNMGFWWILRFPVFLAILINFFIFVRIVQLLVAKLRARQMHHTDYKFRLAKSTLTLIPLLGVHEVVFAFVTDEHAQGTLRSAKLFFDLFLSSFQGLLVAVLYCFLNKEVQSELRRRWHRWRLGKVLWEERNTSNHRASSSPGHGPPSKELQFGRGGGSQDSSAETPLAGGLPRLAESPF

SMILES: CCCCCCCCCCCCCCO[C@@H]1O[C@H](CO[C@H]2O[C@H](C(=O)NCCCC[C@H](N)C(=O)NCCCC[C@H](NC(=O)[C@@H](NC(=O)[C@H](Cc3ccccc3)NC(=O)[C@H](CCC(=O)O)NC(=O)[C@@H]3CCCCNC(=O)CC[C@H](NC(=O)[C@H](CC(=O)O)NC(=O)[C@H](CC(C)C)NC(=O)[C@H](Cc4ccc(O)cc4)NC(=O)[C@H](CCCCN)NC(=O)[C@H](CO)NC(=O)[C@H](Cc4ccc(O)cc4)NC(=O)[C@H](CC(=O)O)NC(=O)[C@H](CO)NC(=O)[C@@H](NC(=O)[C@H](Cc4ccccc4)NC(=O)[C@@H](NC(=O)CNC(=O)[C@H](CCC(N)=O)NC(=O)C(C)(C)NC(=O)[C@@H](N)Cc4c[nH]cn4)[C@@H](C)O)[C@@H](C)O)C(=O)N[C@@H](CCC(N)=O)C(=O)N[C@@H](C)C(=O)N[C@@H](C)C(=O)N3)[C@@H](C)CC)C(=O)N[C@@H](Cc3c[nH]c4ccccc34)C(=O)N[C@@H](CC(C)C)C(=O)N[C@@H](CC(C)C)C(=O)N[C@@H](CCC(N)=O)C(=O)N[C@H](C(=O)O)[C@@H](C)O)[C@H](O)[C@H](O)[C@H]2O)[C@@H](O)[C@H](O)[C@H]1O [EU-A1612]
EC50 (human GLP-1 receptor): 0.011 nM
EC50 (human glucagon receptor): 0.059 nM

SMILES: CCCCCCCCCCCCCCO[C@@H]1O[C@H](CO[C@H]2O[C@H](C(=O)N[C@@H](CCC(=O)NCCCC[C@H](NC(=O)[C@@H](NC(=O)[C@H](Cc3ccccc3)NC(=O)[C@H](CCC(=O)O)NC(=O)[C@@H]3CCCCNC(=O)CC[C@H](NC(=O)[C@H](CC(=O)O)NC(=O)[C@H](CC(C)C)NC(=O)[C@H](Cc4ccc(O)cc4)NC(=O)[C@H](CCCCN)NC(=O)[C@H](CO)NC(=O)[C@H](Cc4ccc(O)cc4)NC(=O)[C@H](CC(=O)O)NC(=O)[C@H](CO)NC(=O)[C@@H](NC(=O)[C@H](Cc4ccccc4)NC(=O)[C@@H](NC(=O)CNC(=O)[C@H](CCC(N)=O)NC(=O)C(C)(C)NC(=O)[C@@H](N)Cc4c[nH]cn4)[C@@H](C)O)[C@@H](C)O)C(=O)N[C@@H](CCC(N)=O)C(=O)N[C@@H](C)C(=O)N[C@@H](C)C(=O)N3)[C@@H](C)CC)C(=O)N[C@@H](Cc3c[nH]c4ccccc34)C(=O)N[C@@H](CC(C)C)C(=O)N[C@@H](CC(C)C)C(=O)N[C@@H](CCC(N)=O)C(=O)N[C@H](C(=O)O)[C@@H](C)O)C(=O)O)[C@H](O)[C@H](O)[C@H]2O)[C@@H](O)[C@H](O)[C@H]1O [EU-A1617]
EC50 (human GLP-1 receptor): 0.119 nM
EC50 (human glucagon receptor): 0.598 nM

SMILES: CCCCCCCCCCCCCCO[C@@H]1O[C@H](CO[C@H]2O[C@H](C(=O)N[C@@H](CCC(=O)N[C@@H](CCC(=O)NCCCC[C@H](NC(=O)[C@@H](NC(=O)[C@H](Cc3ccccc3)NC(=O)[C@H](CCC(=O)O)NC(=O)[C@@H]3CCCCNC(=O)CC[C@H](NC(=O)[C@H](CC(=O)O)NC(=O)[C@H](CC(C)C)NC(=O)[C@H](Cc4ccc(O)cc4)NC(=O)[C@H](CCCCN)NC(=O)[C@H](CO)NC(=O)[C@H](Cc4ccc(O)cc4)NC(=O)[C@H](CC(=O)O)NC(=O)[C@H](CO)NC(=O)[C@@H](NC(=O)[C@H](Cc4ccccc4)NC(=O)[C@@H](NC(=O)CNC(=O)[C@H](CCC(N)=O)NC(=O)C(C)(C)NC(=O)[C@@H](N)Cc4c[nH]cn4)[C@@H](C)O)[C@@H](C)O)C(=O)N[C@@H](CCC(N)=O)C(=O)N[C@@H](C)C(=O)N[C@@H](C)C(=O)N3)[C@@H](C)CC)C(=O)N[C@@H](Cc3c[nH]c4ccccc34)C(=O)N[C@@H](CC(C)C)C(=O)N[C@@H](CC(C)C)C(=O)N[C@@H](CCC(N)=O)C(=O)N[C@H](C(N)=O)[C@@H](C)O)C(=O)O)C(=O)O)[C@H](O)[C@H](O)[C@H]2O)[C@@H](O)[C@H](O)[C@H]1O [EU-A1627]
EC50 (human GLP-1 receptor): 0.304 nM
EC50 (human glucagon receptor): 0.705 nM

The next lines start with the values.

EC50 (human GLP-1 receptor): 0.079 nM
EC50 (human glucagon receptor): 0.204 nM
SMILES: CCCCCCCCCCCCO[C@@H]1O[C@H](CO[C@H]2O[C@H](C(=O)N[C@@H](CCC(=O)NCCCC[C@H](NC(=O)[C@@H](NC(=O)[C@H](Cc3ccccc3)NC(=O)[C@H](CCC(=O)O)NC(=O)[C@@H]3CCCCNC(=O)CC[C@H](NC(=O)[C@H](CC(=O)O)NC(=O)[C@H](CC(C)C)NC(=O)[C@H](Cc4ccc(O)cc4)NC(=O)[C@H](CCCCN)NC(=O)[C@H](CO)NC(=O)[C@H](Cc4ccc(O)cc4)NC(=O)[C@H](CC(=O)O)NC(=O)[C@H](CO)NC(=O)[C@@H](NC(=O)[C@H](Cc4ccccc4)NC(=O)[C@@H](NC(=O)CNC(=O)[C@H](CCC(N)=O)NC(=O)C(C)(C)NC(=O)[C@@H](N)Cc4c[nH]cn4)[C@@H](C)O)[C@@H](C)O)C(=O)N[C@@H](CCC(N)=O)C(=O)N[C@@H](C)C(=O)N[C@@H](C)C(=O)N3)[C@@H](C)CC)C(=O)N[C@@H](Cc3c[nH]c4ccccc34)C(=O)N[C@@H](CC(C)C)C(=O)N[C@@H](CC(C)C)C(=O)N[C@@H](CCC(N)=O)C(=O)N[C@H](C(=O)O)[C@@H](C)O)C(=O)O)[C@H](O)[C@H](O)[C@H]2O)[C@@H](O)[C@H](O)[C@H]1O [EU-A1616]

EC50 (human GLP-1 receptor): 0.051 nM
EC50 (human glucagon receptor): 0.24 nM
SMILES: CCCCCCCCCCCCO[C@@H]1O[C@H](CO[C@H]2O[C@H](C(=O)N[C@@H](CCC(=O)N[C@@H](CCC(=O)NCCCC[C@H](NC(=O)[C@@H](NC(=O)[C@H](Cc3ccccc3)NC(=O)[C@H](CCC(=O)O)NC(=O)[C@@H]3CCCCNC(=O)CC[C@H](NC(=O)[C@H](CC(=O)O)NC(=O)[C@H](CC(C)C)NC(=O)[C@H](Cc4ccc(O)cc4)NC(=O)[C@H](CCCCN)NC(=O)[C@H](CO)NC(=O)[C@H](Cc4ccc(O)cc4)NC(=O)[C@H](CC(=O)O)NC(=O)[C@H](CO)NC(=O)[C@@H](NC(=O)[C@H](Cc4ccccc4)NC(=O)[C@@H](NC(=O)CNC(=O)[C@H](CCC(N)=O)NC(=O)C(C)(C)NC(=O)[C@@H](N)Cc4c[nH]cn4)[C@@H](C)O)[C@@H](C)O)C(=O)N[C@@H](CCC(N)=O)C(=O)N[C@@H](C)C(=O)N[C@@H](C)C(=O)N3)[C@@H](C)CC)C(=O)N[C@@H](Cc3c[nH]c4ccccc34)C(=O)N[C@@H](CC(C)C)C(=O)N[C@@H](CC(C)C)C(=O)N[C@@H](CCC(N)=O)C(=O)N[C@H](C(=O)O)[C@@H](C)O)C(=O)O)C(=O)O)[C@H](O)[C@H](O)[C@H]2O)[C@@H](O)[C@H](O)[C@H]1O [EU-A1620]

EC50 (human GLP-1 receptor): 0.774 nM
EC50 (human glucagon receptor): 2.08 nM
SMILES: CCCCCCCCCCCCCCO[C@@H]1O[C@H](CO[C@H]2O[C@H](C(=O)N[C@@H](CCC(=O)N[C@@H](CCC(=O)NCCCC[C@H](NC(=O)[C@@H](NC(=O)[C@H](Cc3ccccc3)NC(=O)[C@H](CCC(=O)O)NC(=O)[C@@H]3CCCCNC(=O)CC[C@H](NC(=O)[C@H](CC(=O)O)NC(=O)[C@H](CC(C)C)NC(=O)[C@H](Cc4ccc(O)cc4)NC(=O)[C@H](CCCCN)NC(=O)[C@H](CO)NC(=O)[C@H](Cc4ccc(O)cc4)NC(=O)[C@H](CC(=O)O)NC(=O)[C@H](CO)NC(=O)[C@@H](NC(=O)[C@H](Cc4ccccc4)NC(=O)[C@@H](NC(=O)CNC(=O)[C@H](CCC(N)=O)NC(=O)C(C)(C)NC(=O)[C@@H](N)Cc4c[nH]cn4)[C@@H](C)O)[C@@H](C)O)C(=O)N[C@@H](CCC(N)=O)C(=O)N[C@@H](C)C(=O)N[C@@H](C)C(=O)N3)[C@@H](C)CC)C(=O)N[C@@H](Cc3c[nH]c4ccccc34)C(=O)N[C@@H](CC(C)C)C(=O)N[C@@H](CC(C)C)C(=O)N[C@@H](CCC(N)=O)C(=O)N[C@H](C(=O)O)[C@@H](C)O)C(=O)O)C(=O)O)[C@H](O)[C@H](O)[C@H]2O)[C@@H](O)[C@H](O)[C@H]1O [EU-A1622]
